Results: publication PMC6804080, “Benzoxaboroles—Novel Autotaxin Inhibitors” (Molecules, 2019)

Tests used:
[1] = Chrom logD determination by gradient HPLC (CHI); assay type: physicochemical; settings: pH 7.4, Luna C18 column; for chromatographic logD: reversed-phase HPLC, Phenomenex Luna C18 column
Protocol: clogP values were calculated for all compounds using the Percepta software. Chrom logD was determined experimentally using a procedure described in the supplementary data. Furthermore, the correlation between calculated clogP values and experimentally determined Chrom log D values were explored for molecules containing boron functional groups such as boronic acids and benzoxaboroles.
Chrom logD values were determined from the following equation: Chrom logD = 0.0857 × CHI − 2 [39]. Chromatographic hydrophobic index (CHI) values were determined from the gradient retention times (RT). These values approximately corresponded to the volume percentage of organic component in the mobile phase when the compound elutes. CHI values were determined at pH 7.4. Chromatograms were obtained using on Agilent 1100 Series liquid chromatography system with an HPLC diode-array detector (DAD) coupled with a Micromass Quattro micro atmosphere pressure ionization (API) mass spectrometer. The column used for analyses was Phenomenex Luna C18 (50 × 3 mm, 5 µm, 100 Å). The column was maintained at 25 °C. The flow rate was 1.0 mL/min. The mobile phase was composed of 50 mM ammonium acetate in water at pH 7.4 (solvent A) and acetonitrile (solvent B). The solvent gradient condition was initially 0.5% B, and then it increased linearly to 100% B over 3.0 min, remaining at 100% B for 0.5 min, then decreasing linearly to 0% B over 0.2 min followed by an equilibration period of 1.3 min prior to the next injection. The total experimental duration was 5 min. Injection volume was 2.0 µl. Samples temperature was maintained at 15 °C in the autosampler chamber. A group of ten standard compounds having different CHI values was used for calibration of RP-HPLC [40].

Autotaxin (ATX) = molecular target: T1, Autotaxin (ATX) (Homo sapiens, UniProt Q13822); test: biochemical choline detection assay for ATX inhibition, LysoPC substrate; settings: for IC50: mean standard deviation from duplicate experiments
T1 construct: we added 10 μL of recombinant ATX (2 ng/mL) in a Tris–HCl buffer
Protocol: All 21 new benzoxaboroles derivatives prepared herein were evaluated for ATX inhibition in vitro using a biochemical choline detection assay, combining elements of assays already described in the literature.
[…] Mother plates with serial dilutions of compounds in pure DMSO were prepared from 10 mM DMSO stock solutions. Storplate-384-deep-well-V plates (Perkin Elmer) were also used for mother plate preparation. Compounds were diluted in a DMSO in a ratio of 1:3. An aliquot of 200 nL of compound solution was transferred from the mother plate to the test plate with a Mosquito nanoliter liquid handling system (TTP labtech). The assay was performed in Spectra-Plate-384 TC, transparent, (Perkin Elmer, Cat#6007658) using a 20 µL assay volume. The total final percentage of DMSO in the test media was 1%. Compounds were tested at 11 consecutive three-fold dilutions starting from 50 µM (final concentrations) in duplicate, covering range of 0.0008–50 μM to determine IC50 values. […] After dispensing of compounds directly to the dry plate, we added 10 μL of recombinant ATX (2 ng/mL) in a Tris–HCl buffer (140 mM NaCl, 1mM MgCl2, 5 mM KCl, 3 mM CaCl2, 1 mg/ml bovin serum albumin (BSA, fatty acid free) and 100 mM Tris–HCl, pH 9). […] The above-described solution with dimethyl sulfoxide but without the test compound was used as a control. LysoPC without ATX was used as a control for the autohydrolysis of LysoPC. After 1.5 h of incubation, 20 μL of stop solution and developer was added {Choline oxidase (1.2 U/mL), Peroxidase (1.2 U/mL), TOOS (2.7 mM), 4-Aminoantipyrine (2.7 mM), and EDTA (50 mM)} to the reaction mixture, and absorbance was measured after 30 min of incubation. The absorbance was measured by using Perkin-Elmer EnVision plate reader (λ = 555 nm). Data were analyzed using GraphPad Prism software. The calculation of IC50 data, curves and quality control (QC) analysis was made by using Excel tools and GraphPadPrism software. Briefly, individual concentration–effect curves were generated by plotting the logarithm of the tested concentration of tested compounds (X) vs. corresponding percentage inhibition values (Y) using a least squares (ordinary) fit. […] QC criteria parameters (Z,’ S:B, ΔmP) were checked for every plate.

[2] = choline release assay using as a substrate
[3] = choline release assay using LPC C16:0 as a substrate

Row | SMILES | chromatographic logD [1] | IC50 (Autotaxin (ATX); [2]) [µM] | ATX inhibition, range of activity (Autotaxin (ATX); in words) | Chrom logD [1] | IC50 (Autotaxin (ATX); [3]) [µM]
1 | O=C(OCc1cc(Cl)cc(Cl)c1)N1CCN(C2CCN(C(=O)c3cccc4c3COB4O)C2)CC1 (stereo not shown) [Compound 33] | – | – | – | 5.40 | 8 ± 2.58
2 | Cc1cc(C)cc(COC(=O)N2CCN(C3CN(C(=O)c4ccc5c(c4)COB5O)C3)CC2)c1 [Compound 46, (3,5-dimethylphenyl)methyl 4-[1-(1-hydroxy-3H-2,1-benzoxaborole-5-carbonyl)azetidin-3-yl]piperazine-1-carboxylate] | 4.01 | 5.1 ± 2.75 | – | – | –
3 | COc1cc(COC(=O)N2CCN(C3CCN(C(=O)c4ccc5c(c4)B(O)OC5)C3)CC2)cc(OC)c1 (stereo not shown) [Compound 47, (3,5-dimethoxyphenyl)methyl 4-[1-(1-hydroxy-3H-2,1-benzoxaborole-6-carbonyl)pyrrolidin-3-yl]piperazine-1-carboxylate] | 3.19 | 14 ± 5.5 | – | – | –
4 | COc1cc(COC(=O)N2CCN(C3CN(C(=O)c4ccc5c(c4)B(O)OC5)C3)CC2)cc(OC)c1 [Compound 49, (3,5-dimethoxyphenyl)methyl 4-[1-(1-hydroxy-3H-2,1-benzoxaborole-6-carbonyl)azetidin-3-yl]piperazine-1-carboxylate] | 3.21 | 11 ± 4.59 | – | – | –
5 | COc1cc(COC(=O)N2CCN(C3CN(C(=O)c4ccc5c(c4)COB5O)C3)CC2)cc(OC)c1 [Compound 50] | – | – | – | 3.07 | 13 ± 3.26

Second part, the molecule after the results:

Row | chromatographic logD [1] | IC50 (Autotaxin (ATX); [2]) [µM] | ATX inhibition, range of activity (Autotaxin (ATX); in words) | Chrom logD [1] | IC50 (Autotaxin (ATX); [3]) [µM] | SMILES
6 | 4.38 | 0.37 ± 0.35 | nanomolar range | – | – | O=C(OCc1cc(Cl)cc(Cl)c1)N1CCN(C2CCN(C(=O)c3ccc4c(c3)COB4O)C2)CC1 (stereo not shown) [Compound 32, (3,5-dichlorophenyl)methyl 4-[1-(1-hydroxy-3H-2,1-benzoxaborole-5-carbonyl)pyrrolidin-3-yl]piperazine-1-carboxylate]
7 | 3.05 | > 50 | – | – | – | O=C(OCc1ccccc1)N1CCN(C2CCN(C(=O)c3ccc4c(c3)B(O)OC4)C2)CC1 (stereo not shown) [Compound 39, benzyl 4-[1-(1-hydroxy-3H-2,1-benzoxaborole-6-carbonyl)pyrrolidin-3-yl]piperazine-1-carboxylate]
8 | 2.9 | > 50 | – | – | – | O=C(OCc1ccccc1)N1CCN(C2CCN(C(=O)c3ccc4c(c3)COB4O)C2)CC1 (stereo not shown) [Compound 40, benzyl 4-[1-(1-hydroxy-3H-2,1-benzoxaborole-5-carbonyl)pyrrolidin-3-yl]piperazine-1-carboxylate]
9 | 3.07 | 23 ± 1.18 | – | – | – | O=C(OCc1ccccc1)N1CCN(C2CN(C(=O)c3ccc4c(c3)B(O)OC4)C2)CC1 [Compound 41, benzyl 4-[1-(1-hydroxy-3H-2,1-benzoxaborole-6-carbonyl)azetidin-3-yl]piperazine-1-carboxylate]
10 | 2.9 | > 50 | – | – | – | O=C(OCc1ccccc1)N1CCN(C2CN(C(=O)c3ccc4c(c3)COB4O)C2)CC1 [Compound 42, benzyl 4-[1-(1-hydroxy-3H-2,1-benzoxaborole-5-carbonyl)azetidin-3-yl]piperazine-1-carboxylate]
11 | 3.99 | 4.7 ± 1.14 | – | – | – | Cc1cc(C)cc(COC(=O)N2CCN(C3CCN(C(=O)c4ccc5c(c4)COB5O)C3)CC2)c1 (stereo not shown) [Compound 44, (3,5-dimethylphenyl)methyl 4-[1-(1-hydroxy-3H-2,1-benzoxaborole-5-carbonyl)pyrrolidin-3-yl]piperazine-1-carboxylate]
12 | 3.03 | 15 ± 6.07 | – | – | – | COc1cc(COC(=O)N2CCN(C3CCN(C(=O)c4ccc5c(c4)COB5O)C3)CC2)cc(OC)c1 (stereo not shown) [Compound 48, (3,5-dimethoxyphenyl)methyl 4-[1-(1-hydroxy-3H-2,1-benzoxaborole-5-carbonyl)pyrrolidin-3-yl]piperazine-1-carboxylate]
